Results on one cell line are retold here after the supplement of paper PMC10307832.

Holding throughout (assay): relative viability (nuclei count vs DMSO), 5 days (fraction); higher = more cells survive
Compound in the assay “Carboplatin + Alpelisib”: C1CC(C1)(C(=O)O)C(=O)O.[NH2-].[NH2-].[Pt+2] [Carboplatin] + Cc1nc(NC(=O)N2CCC[C@H]2C(N)=O)sc1-c1ccnc(C(C)(C)C(F)(F)F)c1 [Alpelisib] (partner 2 µM)
The gist of the method:
(§1)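 Lung cancer cell lines were seeded in 1536-well plates and dosed by pin tool the next day, with either a single drug or a fixed anchor-drug dose combined with five library-drug doses (not always all listed) spaced in √10 steps. Five days later, one step fixed the cells and stained their nuclei (final 0.05% Triton X-100, 1% formaldehyde, 1 ug/ml Hoechst), and nuclei were counted on 4× images. Relative viability is the nuclei count in treated wells divided by the count in vehicle wells, and each value is the median of duplicate plates.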

Compound in the assay “Carboplatin + Pemetrexed”: C1CC(C1)(C(=O)O)C(=O)O.[NH2-].[NH2-].[Pt+2] [Carboplatin] + Nc1nc2[nH]cc(CCc3ccc(C(=O)N[C@@H](CCC(=O)O)C(=O)O)cc3)c2c(=O)[nH]1 [Pemetrexed] (partner 0.2 µM)
The gist of the method: as §1

Compound in the assay “MLN4924 + Pictilisib”: NS(=O)(=O)OC[C@@H]1C[C@@H](n2ccc3c(N[C@H]4CCc5ccccc54)ncnc32)C[C@@H]1O [MLN4924] + CS(=O)(=O)N1CCN(Cc2cc3nc(-c4cccc5[nH]ncc45)nc(N4CCOCC4)c3s2)CC1 [Pictilisib] (partner 1 µM)
The gist of the method: as §1

Compound in the assay “MLN4924 + Linsitinib”: NS(=O)(=O)OC[C@@H]1C[C@@H](n2ccc3c(N[C@H]4CCc5ccccc54)ncnc32)C[C@@H]1O [MLN4924] + C[C@]1(O)C[C@@H](c2nc(-c3ccc4ccc(-c5ccccc5)nc4c3)c3c(N)nccn32)C1 [Linsitinib] (partner 1 µM)
The method in brief: as §1

Regarding UMC-11, the relative viability in the assay with Carboplatin + Alpelisib (first compound 0.08 µM) is 1; with Carboplatin + Alpelisib (first compound 0.253 µM), 0.96; with Carboplatin + Alpelisib (first compound 0.8 µM) it was 0.827; with Carboplatin + Alpelisib (first compound 2.53 µM), 0.955; with Carboplatin + Alpelisib (first compound 8 µM) it was 0.588; with Carboplatin + Pemetrexed (first compound 0.08 µM), 0.853. Besides, the relative viability with Carboplatin + Pemetrexed (first compound 0.253 µM) was determined as 0.738; with Carboplatin + Pemetrexed (first compound 0.8 µM), 0.802; with Carboplatin + Pemetrexed (first compound 2.53 µM), 0.689; in the assay with Carboplatin + Pemetrexed (first compound 8 µM) it was 0.62; with MLN4924 + Pictilisib (first compound 0.04 µM) it was 0.593; with MLN4924 + Pictilisib (first compound 0.1265 µM) it was 0.357. Besides, the relative viability in the assay with MLN4924 + Pictilisib (first compound 0.4 µM) was 0.267; with MLN4924 + Pictilisib (first compound 1.265 µM), 0.14; with MLN4924 + Pictilisib (first compound 4 µM), 0.14; with MLN4924 + Linsitinib (first compound 0.04 µM), 0.645; with MLN4924 + Linsitinib (first compound 0.1265 µM), 0.331; with MLN4924 + Linsitinib (first compound 0.4 µM), 0.238. Moreover, the relative viability was 0.194 with MLN4924 + Linsitinib (first compound 1.265 µM) and 0.153 with MLN4924 + Linsitinib (first compound 4 µM).
